Test results reported in patent US20250229068A1, “ELECTROCONDUCTIVE MICRONEEDLE FOR DRUG DELIVERY INTO DEEP TISSUE” (The University of Hong Kong, priority 2024, published 2025).

System: CGRP gene expression in PC-12 cells
Experiment: RT-qPCR of CGRP gene in PC-12 cells
Assay type: cell-based
Details: miconazole and electric current together (0.5 mA, 5 mins), 24 h
Method: PC-12 cells are cultures with 10% FBS and 1% Penicillin-Streptomycin supplemented with DMEM and incubated in a humidified incubator (37° C., 5% CO2). For the experiment, 5×10^4 cells per well are seeded on to 24 well plates and incubate for 24 hours to form a uniform monolayer. After that, miconazole nitrate ([…]) and electrical stimulation (0.5 mA, 5 mins) are given as treatment. Further, untreated cells are served as a control. After the treatment, medium is changed for electrical stimulation group and incubate for another 24 h. After that, total RNA is extracted from the treated cells using RNeasy Mini Kit (Qiagen, Hilden, Germany) and checked the purity using NanoDrop (Thermo Fisher Scientific, USA). Next, RNA is reversely transcribed into cDNA using the First Strand cDNA kit (Takara, DaLian, China). Real-time quantitative PCR reaction is performed with cDNA using TB green Premix. The mean cycle threshold (Ct) value of each target gene is normalized to the housekeeping genes (i.e., GAPDH).
It is hypothesized that the miconazole nitrate molecules released from the electroconductive MNs may also trigger the release of the calcitonin gene-related peptide (CGRP) from nociceptive neurons under electrical stimulation. […]

## Clc1ccc(COC(Cn2ccnc2)c2ccc(Cl)cc2Cl)c(Cl)c1 (stereo not shown) [miconazole, miconazole nitrate]
  increase in the expression of CGRP: ~3 fold
